One series concerns the target T1, UBE2D1 (Homo sapiens, UniProt P51668).
T1 construct: purchased Enzo Life Science BML-UW9050
Nature of the series: Thioester bond formation assay. The settings on record: same biochemical assay. On the procedure: (§1) An in vitro Ubiquitin-E2 thioester (TE) bond formation assay was performed as described (Enzo Life Science, #BML-UW9920-0001, Farmingdale, N.Y.). The reaction was prepared as follows: 10×E2 (UBE2N/Mms2, No. BML-UW9565; UbcH5a, No. BML-UW9050; or UbcH6, Prod. No. BML-UW8710) were incubated with UC-764864 or UC-764865 at 1 or 2 μM for 30 minutes at room temperature. After the incubation period, the following reagents were added to the reaction: distilled water, 10× ubiquitination buffer, inorganic pyrophosphatase solution (100 U/mL in 20 mM Tris-HCl, pH 7.5, Sigma, 83205, St. Louis, Mo.), 50 mM DTT, 0.1 M Mg-ATP, 20×E1 (recombinant human ubiquitin-activating enzyme) and 20× biotinylated ubiquitin to a final volume of 10 p.l. The mixture was incubated for 4 hours at 37° C. The reaction was stopped by adding 10 p.l 2× non-reducing gel loading buffer. 15 p.l of the samples were run on SDS-PAGE gels and transferred to PVDF membrane. […] After washing the membrane for 6×10 mins with TBS-T on a rocking platform, total ubiquitin was detected with ECL detection reagent (Pierce™ ECL Western Blotting Substrate, #32106, Appleton, Wis.) according to the manufacturer's instructions. Detect emitted signal with Biorad ChemiDoc™ MP and analyzed with Image lab software 6.0.1 (Biorad, Hercules, Calif.) or Image J [67]. […]

Another series addresses T2, UBE2E1 (Homo sapiens, UniProt P51965).
T2 construct: purchased Enzo Life Science BML-UW8710
Nature of the series: Thioester bond formation assay. The settings on record: same biochemical assay. On the procedure:
as §1

The subject of a further series is cord blood CD34+ cells. Nature of the series: Colony formation (clonogenic) assay in healthy cells. The class given is cell-based, human. On the procedure:
In order to determine viability after UBE2N knockdown or inhibition, 1×10^6 AML cells were washed with PBS and mixed with pre-diluted APC-conjugated Annexin V (BD Pharmigen, Franklin Lakes, N.J.) and Propidium iodide (PI) (Invitrogen ThermoFisher 00-6990-42, Waltham, Mass.). Cells were stained at room temperature for 15 minutes and suspended in 0.5 ml of Annexin V incubation buffer (eBiosciences 88-8007-74, San Diego, Calif.) for analysis using a BD FACS Canto System (BD Biosciences, San Jose, Calif.). For UBE2N knockdown experiments, PI−/GFP+ cells were sorted using a MoFlo XDP sorter (Beckman Coulter, Brea, Calif.) and plated in methylcellulose (StemCell Technologies H4236, Vancouver, CA) at 1000 cells/ml in 35 mm culture dishes. For UBE2N inhibition experiments, cell lines were plated in methycellulose (StemCell Technologies H4236, Vancouver, CA) at the indicated concentrations of inhibitor. Cells were incubated at 37° C. and 5% CO2. Colonies were scored after 7 days in culture. For UBE2N or UBE2N C87S overexpression experiments, MOLM-13 cells were transduced with lentivectors overexpressing UBE2N wild type or mutant in the presence of polybrene (8 μg/ml). […] Colonies were scored at 7 days. […] Colonies were manually scored at 14-16 days after plating or counted with STEMVision (StemCell Technologies, Vancouver, CA).

A further series in a line: In vivo toxicity study. The settings on record: 4 doses of 25 mg/kg over 2 weeks, mice. Here is the method: PK studies of UC-764864 and UC-764865 were performed in C57BL/6 mice (18-22 g). 10 mg/kg and 20 mg/kg UC-764864 or UC-764865 was administered through intraperitoneal (i.p.) injection. After dosing, blood samples were collected at 15 min, 30 min, 1 h, 2 h, 4 h, 8 h, 12 h, and 24 h. Samples from three animals were collected at each time point. Approximately 500 μL of blood was collected via orbital vein from each mouse, processed, and analyzed by LC-MS. Standard curves were prepared in blood covering the concentration range of 50-3,0000 ng/mL. Using the data from the standard curves, calibration curves were generated for PK tests. For in vivo toxicity studies, 25 mg/kg UC-764864, UC-764865, 10 mg/kg NSC697923 or vehicle control (methocel 0.5% tween-20 0.2%,0.1% DMSO in water) were administered in B6.SJL-Ptprca Pepcb/BoyJ mice (n=3/group) through i.p. injection. For 2 weeks the mice received 4 doses of each compound. Routine body weight and blood counts were performed. At the end of the study, tissues were harvested, placed in 10% buffered formalin, stained with hematoxylin and eosin (H&E) and examined by a pathologist.

These results are taken from patent US20220267753A1, “RATIONAL THERAPEUTIC TARGETING OF ONCOGENIC IMMUNE SIGNALING STATES IN MYELOID MALIGNANCIES VIA THE UBIQUITIN CONJUGATING ENZYME UBE2N” (CHILDREN'S HOSPITAL MEDICAL CENTER, priority 2019, published 2022).

T2 sequence (P51965 whole entry): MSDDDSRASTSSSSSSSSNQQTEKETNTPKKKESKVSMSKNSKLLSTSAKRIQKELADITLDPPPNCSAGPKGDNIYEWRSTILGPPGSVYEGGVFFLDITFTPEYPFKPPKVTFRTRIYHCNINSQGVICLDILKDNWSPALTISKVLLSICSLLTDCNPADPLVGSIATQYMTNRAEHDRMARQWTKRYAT
T1 sequence (P51668 whole entry): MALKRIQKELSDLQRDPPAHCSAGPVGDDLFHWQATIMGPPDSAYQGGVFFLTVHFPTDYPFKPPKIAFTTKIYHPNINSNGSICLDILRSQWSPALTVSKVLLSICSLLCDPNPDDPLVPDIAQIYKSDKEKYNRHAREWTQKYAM

With `CCc1ccc(C(=O)C=CSc2nc3ccc(C)cc3[nH]2)cc1` [UC-764864, 1-(4-ethylphenyl)-3-[(6-methyl-1H-benzimidazol-2-yl)sulfanyl]prop-2-en-1-one], the “interference with activity of UBE2D1” value at UBE2D1 is reported as “did not interfere”. Moreover, the “interference with activity of UBE2E1” value on UBE2E1 is on record as “did not interfere”. Besides, the “clonogenic potential of cord blood CD34+ cells” value in the series with cord blood CD34+ cells is on record as “did not affect”.
As for `COc1ccc(C(=O)C=CSc2nc3ccc(C)cc3[nH]2)cc1` [UC-764865, 1-(4-methoxyphenyl)-3-[(6-methyl-1H-benzimidazol-2-yl)sulfanyl]prop-2-en-1-one], in “In vivo toxicity study”, the “body weight, hematologic blood parameters, survival” value is on record as “did not significantly affect”; the “histological evaluation of several tissues” value is “no evidence of overall tissue toxicity”; the “tolerability after repeated administration” value is recorded as “no abnormalities noted”.
